Article PMC9021288 (Nature Communications, 2022)
“And” between values parts separate entries of the source, which are not always exact repeats. Equal values may be shown once. Read-outs that look alike come from different tables or passages of the source.

Legend:
[1] = molecular target: T1, panel of human receptors and channels (Homo sapiens, UniProt P37231); format: binding; details: PPARγ (h) (agonist radioligand); Rep1, Rep2, Mean
T1 construct: purchased Eurofins CEREP

[2] = molecular target: T2, panel of human receptors and channels (Homo sapiens, UniProt Q01959); format: binding; details: dopamine transporter (h) (antagonist radioligand); Rep1, Rep2, Mean
T2 construct: purchased Eurofins CEREP
T2 sequence (Q01959 whole entry): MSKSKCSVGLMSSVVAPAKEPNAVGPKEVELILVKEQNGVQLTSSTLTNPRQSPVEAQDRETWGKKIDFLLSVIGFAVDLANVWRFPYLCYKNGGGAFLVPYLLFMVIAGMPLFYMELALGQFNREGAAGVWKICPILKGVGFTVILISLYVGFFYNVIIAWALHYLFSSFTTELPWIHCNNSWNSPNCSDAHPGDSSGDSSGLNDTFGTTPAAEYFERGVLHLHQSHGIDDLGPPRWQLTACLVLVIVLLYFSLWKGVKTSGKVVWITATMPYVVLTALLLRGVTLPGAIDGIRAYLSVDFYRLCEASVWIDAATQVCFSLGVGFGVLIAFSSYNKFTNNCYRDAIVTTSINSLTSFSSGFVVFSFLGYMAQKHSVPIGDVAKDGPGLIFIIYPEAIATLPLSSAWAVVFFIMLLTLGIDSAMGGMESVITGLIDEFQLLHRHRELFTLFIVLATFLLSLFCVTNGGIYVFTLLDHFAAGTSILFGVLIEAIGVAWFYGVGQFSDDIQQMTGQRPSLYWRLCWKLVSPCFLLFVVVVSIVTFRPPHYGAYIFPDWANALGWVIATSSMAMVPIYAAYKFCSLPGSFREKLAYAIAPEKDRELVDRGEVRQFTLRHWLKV

[3] = molecular target: T3, panel of human receptors and channels (Homo sapiens, UniProt P30411); format: binding; details: B2 (h) (agonist radioligand); Rep1, Rep2, Mean
T3 construct: purchased Eurofins CEREP
T3 sequence (P30411 whole entry): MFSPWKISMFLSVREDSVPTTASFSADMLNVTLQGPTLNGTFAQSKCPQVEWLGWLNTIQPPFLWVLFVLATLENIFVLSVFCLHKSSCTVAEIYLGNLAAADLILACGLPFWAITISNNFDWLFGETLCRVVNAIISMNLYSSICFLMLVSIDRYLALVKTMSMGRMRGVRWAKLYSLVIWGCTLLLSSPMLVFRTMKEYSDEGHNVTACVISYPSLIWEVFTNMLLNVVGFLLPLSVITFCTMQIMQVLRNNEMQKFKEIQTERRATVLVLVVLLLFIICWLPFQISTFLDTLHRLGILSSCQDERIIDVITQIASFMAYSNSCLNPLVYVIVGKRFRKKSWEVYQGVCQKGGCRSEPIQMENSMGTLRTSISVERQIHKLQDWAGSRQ

[4] = molecular target: T4, panel of human receptors and channels (Homo sapiens, UniProt P30542); format: binding; details: A1 (h) (antagonist radioligand); Rep1, Rep2, Mean
T4 construct: purchased Eurofins CEREP
T4 sequence (P30542 whole entry): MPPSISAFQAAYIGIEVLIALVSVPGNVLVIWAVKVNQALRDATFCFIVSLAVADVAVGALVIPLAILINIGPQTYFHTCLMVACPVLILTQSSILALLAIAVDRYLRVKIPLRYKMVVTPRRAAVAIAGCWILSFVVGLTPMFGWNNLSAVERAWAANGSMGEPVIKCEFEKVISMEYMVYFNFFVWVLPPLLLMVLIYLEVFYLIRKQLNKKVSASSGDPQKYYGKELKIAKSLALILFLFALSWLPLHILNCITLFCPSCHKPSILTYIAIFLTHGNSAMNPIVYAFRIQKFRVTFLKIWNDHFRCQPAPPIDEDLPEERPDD

[5] = molecular target: T5, panel of human receptors and channels (Homo sapiens, UniProt P34981); format: binding; details: TRH1 (h) (agonist radioligand); Rep1, Rep2, Mean
T5 construct: purchased Eurofins CEREP

[6] = molecular target: T6, panel of human receptors and channels (Homo sapiens, UniProt P04150); format: binding; details: GR (h) (agonist radioligand); Rep1, Rep2, Mean
T6 construct: purchased Eurofins CEREP

[7] = molecular target: T7, panel of human receptors and channels (Homo sapiens, UniProt P0DMS8); format: binding; details: A3 (h) (agonist radioligand); Rep1, Rep2, Mean
T7 construct: purchased Eurofins CEREP
T7 sequence (P0DMS8 whole entry): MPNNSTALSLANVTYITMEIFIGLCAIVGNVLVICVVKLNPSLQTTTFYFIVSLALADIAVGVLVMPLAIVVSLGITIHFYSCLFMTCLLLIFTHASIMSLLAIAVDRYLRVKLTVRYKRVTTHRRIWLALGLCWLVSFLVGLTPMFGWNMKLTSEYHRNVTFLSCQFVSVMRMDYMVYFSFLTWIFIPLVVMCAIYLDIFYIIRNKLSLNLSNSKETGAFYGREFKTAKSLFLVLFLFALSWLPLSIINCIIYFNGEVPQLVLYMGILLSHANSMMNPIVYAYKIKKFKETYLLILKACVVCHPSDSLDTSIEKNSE

[8] = molecular target: T8, panel of human receptors and channels (Homo sapiens, UniProt P32238); format: binding; details: CCK1 (CCKA) (h) (agonist radioligand); Rep1, Rep2, Mean
T8 construct: purchased Eurofins CEREP

[9] = molecular target: T9, panel of human receptors and channels (Homo sapiens, UniProt P24530); format: binding; details: ETB (h) (agonist radioligand); Rep1, Rep2, Mean
T9 construct: purchased Eurofins CEREP

[10] = molecular target: T10, panel of human receptors and channels (Homo sapiens, UniProt P29371); format: binding; details: NK3 (h) (antagonist radioligand); Rep1, Rep2, Mean
T10 construct: purchased Eurofins CEREP
T10 sequence (P29371 whole entry): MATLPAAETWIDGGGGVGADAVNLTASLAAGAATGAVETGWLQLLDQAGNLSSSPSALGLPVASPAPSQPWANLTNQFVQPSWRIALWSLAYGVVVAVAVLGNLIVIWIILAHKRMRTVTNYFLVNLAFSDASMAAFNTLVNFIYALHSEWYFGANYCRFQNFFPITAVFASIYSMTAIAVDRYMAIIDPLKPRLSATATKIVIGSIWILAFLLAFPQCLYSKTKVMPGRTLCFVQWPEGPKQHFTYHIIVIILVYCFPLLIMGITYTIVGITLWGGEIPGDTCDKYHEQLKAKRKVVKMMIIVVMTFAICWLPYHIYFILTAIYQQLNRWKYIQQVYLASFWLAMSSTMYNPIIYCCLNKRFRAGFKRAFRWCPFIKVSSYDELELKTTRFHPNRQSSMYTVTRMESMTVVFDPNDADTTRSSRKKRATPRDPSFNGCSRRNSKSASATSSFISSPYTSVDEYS

[11] = molecular target: T11, panel of human receptors and channels (Homo sapiens, UniProt P30518); format: binding; details: V2 (h) (agonist radioligand); Rep1, Rep2, Mean
T11 construct: purchased Eurofins CEREP

[12] = molecular target: T12, panel of human receptors and channels (Homo sapiens, UniProt P21554); format: binding; details: CB1 (h) (agonist radioligand); Rep1, Rep2, Mean
T12 construct: purchased Eurofins CEREP

[13] = molecular target: T13, panel of human receptors and channels (Homo sapiens, UniProt P08588); format: binding; details: β1 (h) (agonist radioligand); Rep1, Rep2, Mean
T13 construct: purchased Eurofins CEREP

[14] = molecular target: T14, panel of human receptors and channels (Homo sapiens, UniProt P21917); format: binding; details: D4.4 (h) (antagonist radioligand); Rep1, Rep2, Mean
T14 construct: purchased Eurofins CEREP

[15] = molecular target: T15, panel of human receptors and channels (Homo sapiens, UniProt P07550); format: binding; details: β2 (h) (antagonist radioligand); Rep1, Rep2, Mean
T15 construct: purchased Eurofins CEREP

[16] = molecular target: T16, panel of human receptors and channels (Homo sapiens, UniProt P06401); format: binding; details: PR (h) (agonist radioligand); Rep1, Rep2, Mean
T16 construct: purchased Eurofins CEREP
T16 sequence (P06401 whole entry): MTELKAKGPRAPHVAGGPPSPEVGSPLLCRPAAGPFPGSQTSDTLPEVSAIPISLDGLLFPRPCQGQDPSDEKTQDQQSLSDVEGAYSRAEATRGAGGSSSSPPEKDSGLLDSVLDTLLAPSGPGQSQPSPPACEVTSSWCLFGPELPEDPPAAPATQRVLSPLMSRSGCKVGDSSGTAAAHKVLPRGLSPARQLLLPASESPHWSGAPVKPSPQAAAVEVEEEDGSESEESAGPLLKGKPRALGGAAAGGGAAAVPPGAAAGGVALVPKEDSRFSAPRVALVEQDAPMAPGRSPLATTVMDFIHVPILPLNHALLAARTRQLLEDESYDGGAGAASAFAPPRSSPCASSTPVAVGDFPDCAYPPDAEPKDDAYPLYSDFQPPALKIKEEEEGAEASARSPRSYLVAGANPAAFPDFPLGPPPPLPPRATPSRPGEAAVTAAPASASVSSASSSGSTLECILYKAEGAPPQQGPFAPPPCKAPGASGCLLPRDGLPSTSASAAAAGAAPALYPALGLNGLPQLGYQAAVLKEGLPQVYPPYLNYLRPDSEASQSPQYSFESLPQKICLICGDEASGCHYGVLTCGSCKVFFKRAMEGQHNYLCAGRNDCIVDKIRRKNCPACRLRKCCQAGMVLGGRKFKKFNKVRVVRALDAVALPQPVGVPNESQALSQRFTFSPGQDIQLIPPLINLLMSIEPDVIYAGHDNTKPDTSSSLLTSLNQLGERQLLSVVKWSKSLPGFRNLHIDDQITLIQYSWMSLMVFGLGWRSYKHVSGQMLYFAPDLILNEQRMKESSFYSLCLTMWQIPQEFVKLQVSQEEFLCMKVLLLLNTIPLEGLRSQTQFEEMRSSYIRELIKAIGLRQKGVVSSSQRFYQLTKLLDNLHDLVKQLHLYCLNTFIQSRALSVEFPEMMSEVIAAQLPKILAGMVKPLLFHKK

[17] = molecular target: T17, panel of human receptors and channels (Homo sapiens, UniProt P43681); format: binding; details: N neuronal α4β2 (h) (agonist radioligand); Rep1, Rep2, Mean
T17 construct: purchased Eurofins CEREP
T17 sequence (P43681 27-627): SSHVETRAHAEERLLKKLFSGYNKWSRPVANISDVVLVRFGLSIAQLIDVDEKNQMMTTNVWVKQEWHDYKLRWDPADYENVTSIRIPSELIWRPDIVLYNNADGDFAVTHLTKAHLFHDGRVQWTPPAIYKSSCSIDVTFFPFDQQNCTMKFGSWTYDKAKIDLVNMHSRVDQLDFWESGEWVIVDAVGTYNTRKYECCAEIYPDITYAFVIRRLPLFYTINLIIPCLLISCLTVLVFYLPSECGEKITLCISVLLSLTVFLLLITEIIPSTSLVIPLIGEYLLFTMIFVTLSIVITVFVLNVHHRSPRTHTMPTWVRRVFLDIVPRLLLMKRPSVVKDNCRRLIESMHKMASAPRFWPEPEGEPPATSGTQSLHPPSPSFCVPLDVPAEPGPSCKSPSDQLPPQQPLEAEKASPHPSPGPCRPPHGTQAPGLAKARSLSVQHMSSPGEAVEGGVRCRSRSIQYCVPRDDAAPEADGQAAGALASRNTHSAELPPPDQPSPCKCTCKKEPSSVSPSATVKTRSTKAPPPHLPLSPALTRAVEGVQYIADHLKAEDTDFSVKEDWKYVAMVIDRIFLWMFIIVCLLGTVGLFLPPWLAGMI

[18] = molecular target: T18, panel of human receptors and channels (Homo sapiens, UniProt P35367); format: binding; details: H1 (h) (antagonist radioligand); Rep1, Rep2, Mean
T18 construct: purchased Eurofins CEREP

[19] = molecular target: T19, panel of human receptors and channels (Homo sapiens, UniProt P50052); format: binding; details: AT2 (h) (agonist radioligand); Rep1, Rep2, Mean
T19 construct: purchased Eurofins CEREP

[20] = molecular target: T20, panel of human receptors and channels (Homo sapiens, UniProt P25101); format: binding; details: ETA (h) (agonist radioligand); Rep1, Rep2, Mean
T20 construct: purchased Eurofins CEREP
T20 sequence (P25101 21-427): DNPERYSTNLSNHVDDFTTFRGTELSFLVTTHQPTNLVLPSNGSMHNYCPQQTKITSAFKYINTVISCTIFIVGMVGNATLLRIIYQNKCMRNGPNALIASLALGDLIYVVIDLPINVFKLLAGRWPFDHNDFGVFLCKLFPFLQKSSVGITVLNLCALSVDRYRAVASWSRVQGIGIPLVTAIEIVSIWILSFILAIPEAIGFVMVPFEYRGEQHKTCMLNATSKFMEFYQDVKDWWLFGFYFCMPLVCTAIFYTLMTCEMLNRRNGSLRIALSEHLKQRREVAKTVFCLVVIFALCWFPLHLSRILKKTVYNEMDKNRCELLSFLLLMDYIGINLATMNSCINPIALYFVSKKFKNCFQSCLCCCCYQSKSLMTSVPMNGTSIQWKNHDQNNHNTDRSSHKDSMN

[21] = molecular target: T21, panel of human receptors and channels (Homo sapiens, UniProt P25021); format: binding; details: H2 (h) (antagonist radioligand); Rep1, Rep2, Mean
T21 construct: purchased Eurofins CEREP

[22] = molecular target: T22, panel of human receptors and channels (Homo sapiens, UniProt P32239); format: binding; details: CCK2 (CCKB) (h) (agonist radioligand); Rep1, Rep2, Mean
T22 construct: purchased Eurofins CEREP

[23] = tested on: panel of human receptors and channels; format: binding; details: for % Inhibition of Control Specific Binding: Rep1, Rep2, Mean
[24] = molecular target: T23, panel of human receptors and channels (Homo sapiens, UniProt Q9GZV3); format: binding; details: choline transporter (CHT1) (h) (antagonist radioligand); Rep1, Rep2, Mean
T23 construct: purchased Eurofins CEREP

[25] = molecular target: T24, panel of human receptors and channels (Homo sapiens, UniProt P43116); format: binding; details: EP2 (h) (agonist radioligand); Rep1, Rep2, Mean
T24 construct: purchased Eurofins CEREP
T24 sequence (P43116 whole entry): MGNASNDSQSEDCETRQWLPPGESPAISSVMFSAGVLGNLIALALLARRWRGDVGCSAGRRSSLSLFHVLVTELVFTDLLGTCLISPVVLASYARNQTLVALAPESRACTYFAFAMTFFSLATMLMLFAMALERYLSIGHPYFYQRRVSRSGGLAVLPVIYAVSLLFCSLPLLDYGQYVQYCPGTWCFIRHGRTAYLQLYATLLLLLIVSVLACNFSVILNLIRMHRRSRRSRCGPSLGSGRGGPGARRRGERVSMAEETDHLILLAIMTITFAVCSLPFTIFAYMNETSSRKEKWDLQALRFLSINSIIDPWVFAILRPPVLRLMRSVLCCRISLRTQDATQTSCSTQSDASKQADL

[26] = tested on: mouse primary hepatocytes; test: Hepatocyte stability, mouse; format: in vitro ADME

T1 sequence (P37231 whole entry): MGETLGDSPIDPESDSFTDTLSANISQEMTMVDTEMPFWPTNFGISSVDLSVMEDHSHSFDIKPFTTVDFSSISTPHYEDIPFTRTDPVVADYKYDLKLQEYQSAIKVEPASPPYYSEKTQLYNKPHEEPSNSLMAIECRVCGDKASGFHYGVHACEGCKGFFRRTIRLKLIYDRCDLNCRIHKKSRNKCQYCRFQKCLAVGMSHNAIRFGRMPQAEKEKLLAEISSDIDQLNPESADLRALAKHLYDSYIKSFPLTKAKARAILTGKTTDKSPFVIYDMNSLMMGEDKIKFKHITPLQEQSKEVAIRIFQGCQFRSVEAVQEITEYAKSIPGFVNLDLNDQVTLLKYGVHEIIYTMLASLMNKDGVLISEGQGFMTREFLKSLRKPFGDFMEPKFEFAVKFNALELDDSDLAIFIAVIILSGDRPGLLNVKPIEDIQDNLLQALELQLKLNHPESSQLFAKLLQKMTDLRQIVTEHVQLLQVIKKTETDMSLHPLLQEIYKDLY

Compound: C[C@@H](CNC(=O)[C@H](O)C(C)(C)CO)NC(=O)c1cc(F)c(F)cc1F [MMV693183]
- % Inhibition of Control Specific Binding [1]: -8.7% and -7.1% and -7.9%
- % Inhibition of Control Specific Binding [2]: -10.1% and -0.3% and -5.2%
- % Inhibition of Control Specific Binding [3]: 0.2% and 8.4% and 4.3%
- % Inhibition of Control Specific Binding [4]: -9.6% and -3.5% and -6.55%
- % Inhibition of Control Specific Binding [5]: -6.1% and -7.7% and -6.9%
- % Inhibition of Control Specific Binding [6]: -7.3%
- % Inhibition of Control Specific Binding [7]: -6.2% and -3.3% and -4.75%
- % Inhibition of Control Specific Binding [8]: -13.7% and -11% and -12.35%
- % Inhibition of Control Specific Binding [9]: -8.6%
- % Inhibition of Control Specific Binding [10]: -0.9% and 5.3% and 2.2%
- % Inhibition of Control Specific Binding [11]: 3.4% and 12.9% and 8.15%
- % Inhibition of Control Specific Binding [12]: -14.2%
- % Inhibition of Control Specific Binding [13]: 13.7% and 4.9% and 9.3%
- % Inhibition of Control Specific Binding [14]: -1.9% and 2.9% and 0.5%
- % Inhibition of Control Specific Binding [15]: 3.7% and -4.8% and -0.55%
- % Inhibition of Control Specific Binding [16]: -7.9% and -12.3% and -10.1%
- % Inhibition of Control Specific Binding [17]: -14.6% and -4.9% and -9.75%
- % Inhibition of Control Specific Binding [18]: 6.2% and 8% and 7.1%
- % Inhibition of Control Specific Binding [19]: 7.4%
- % Inhibition of Control Specific Binding [20]: -8.1% and -6.5% and -7.3%
- % Inhibition of Control Specific Binding [21]: -9.2% and -5.1% and -7.15%
- % Inhibition of Control Specific Binding [22]: 10.5% and 16.3% and 13.4%
- induction, GABA (non-selective) ([23]; 10 µM): 25.2%
- inhibition in cross-reactivity panel of human receptors, enzymes, or channels ([23]; 10 µM): < 50%
- inhibition/induction, all other binding assays ([23]; 10 µM): less than 25%
- % Inhibition of Control Specific Binding ([23]; AMPA (agonist radioligand)): -3.3% and 6.3% and 1.5%
- % Inhibition of Control Specific Binding ([23]; BZD (central) (agonist radioligand)): -6% and -2.2% and -4.1%
- % Inhibition of Control Specific Binding ([23]; Ca2+ channel (L, dihydropyridine site) (antagonist radioligand)): -8.8% and -2.1% and -5.45%
- % Inhibition of Control Specific Binding ([23]; Ca2+ channel (L, diltiazem site) (benzothiazepines) (antagonist radioligand)): -0.7% and -8.5% and -4.6%
- % Inhibition of Control Specific Binding ([23]; Ca2+ channel (L, verapamil site) (phenylalkylamine) (antagonist radioligand)): -8.2% and -3.1% and -5.65%
- % Inhibition of Control Specific Binding ([23]; Cl- channel (GABA-gated) (antagonist radioligand)): 3.7% and 11.5% and 7.6%
- % Inhibition of Control Specific Binding ([23]; D2S (h) (antagonist radioligand)): 8.5% and 10.6% and 9.55%
- % Inhibition of Control Specific Binding ([23]; GABA transporter (antagonist radioligand)): -5.4% and -8% and -6.7%
- % Inhibition of Control Specific Binding ([23]; IP (PGI2) (h) (agonist radioligand)): 1.7% and -1% and 0.35%
- % Inhibition of Control Specific Binding ([23]; KV channel (antagonist radioligand)): 1.3% and -0.6% and 0.35%
- % Inhibition of Control Specific Binding ([23]; MT1 (ML1A) (h) (agonist radioligand)): -0.2% and 6.2% and 3%
- % Inhibition of Control Specific Binding ([23]; NMDA (antagonist radioligand)): -6% and -8.3% and -7.15%
- % Inhibition of Control Specific Binding ([23]; Na+ channel (site 2) (antagonist radioligand)): 17.2% and 13.3% and 15.25%
- % Inhibition of Control Specific Binding ([23]; P2Y (agonist radioligand)): -7.4% and -3% and -5.2%
- % Inhibition of Control Specific Binding ([23]; SKCa channel (antagonist radioligand)): -1.2% and 2.1% and 0.45%
- % Inhibition of Control Specific Binding ([23]; Y (non-selective) (agonist radioligand)): -24.9% and -15.9% and -20.4%
- % Inhibition of Control Specific Binding ([23]; kainate (agonist radioligand)): -0.8% and 7.7% and 3.45%
- % Inhibition of Control Specific Binding ([23]; opioid (non-selective) (antagonist radioligand)): 4.1% and 0.3% and 2.2%
- % Inhibition of Control Specific Binding ([23]; α1 (non-selective) (antagonist radioligand)): 2.6% and 11.7% and 7.15%
- % Inhibition of Control Specific Binding ([23]; α2 (non-selective) (antagonist radioligand)): -11.5% and -12.5% and -12%
- % Inhibition of Control Specific Binding [24]: 2.6% and 4.5% and 3.55%
- % Inhibition of Control Specific Binding [25]: -1.6% and 2.2% and 0.3%
- Compound Remaining (% of 0 min) ([26]; 0 min): 100%
- Compound Remaining (% of 0 min) ([26]; 5 min): 114%
- Compound Remaining (% of 0 min) ([26]; 10 min): 109%
- Compound Remaining (% of 0 min) ([26]; 20 min): 103%
- Compound Remaining (% of 0 min) ([26]; 40 min): 101%
- Compound Remaining (% of 0 min) ([26]; 60 min): 105%
